In data set [1] the test system is HCT-116 colon cancer cells. As to the kind of experiment: Study #1 orthotopic HCT-116 xenograft efficacy. It counts as in vivo, mouse.
For data set [2] the following is noted: cited from earlier work.
For data set [3] the following is noted: guinea pig; cited from earlier work.
The conditions of data set [4]: rabbit; cited from earlier work.
The conditions of data set [5]: cited from earlier work. This is another data set of the same source.
The conditions of data set [6]: cited from earlier work. This is another data set of the same source.
Data set [7] has as its system HCT-116 colon cancer cells. As to the kind of experiment: Study #2 follow up orthotopic HCT-116 xenograft efficacy. The following applies: 25.9 mg/kg i.v. BIW x 6 doses. It counts as in vivo, female BALB/c nude mice.
For data set [8], the system named is HCT-116 colon cancer cells. It counts as in vivo. The conditions noted are these: 25.9 mg/kg i.v. Q4D x 3 wks.
Data set [9] in a line: SN-38 solubility at saturation in excipients and excipient mixtures (HPLC). It counts as physicochemical. As to the method: The saturation is obtained by adding gradually an excess of active ingredient (maximum target being 50 mg/mL) to a given volume of test medium. […]
The supernatant is then isolated, diluted in a solvent mixture allowing its injection into the chromatographic system. The concentration in solution for each medium is determined by HPLC (external standardization).

Data set [10] can be described thus: SN-38 content of NMP/VitE TPGS/polymer gels (HPLC). It counts as physicochemical. As to the method:
For HPC, both above tested percentages (2 and 5%) will be further tested with SN-38. […] This starting solution is prepared by over stirred 24 hours at 20° C. and then filtered before being used for into polymer solubilization.
The three polymers of interest (HPMC E4M, HPMC E10M, and HPC Klucel) are weighed (according to the above selected percentages) and added for solubilization and under stirring onto the SN-38 solution in NMP/VitE TPGS 50/20 mixture. After 24 h stirring at 20° C., the 3 samples are visually observed, and their SN-38 content is assessed by HPLC (after dilution in an appropriate solvent).

Data set [11] can be described thus: Visual SN-38 solubilization in PLGA/NMP mixtures. The conditions noted are these: PLGA (75:25):NMP mixture at mass ratio 1:2. It counts as physicochemical. As to the method:
SN-38 solubilization in these two PLGA/NMP solution mixtures is then tested with a SN-38 starting concentration of 20 mg/g and then decreasing the tested concentration if needed. Table 13 presents the results of macroscopic observation of tentative SN-38 solubilization in PLGA/NMP mixtures

The conditions of data set [12]: times more cytotoxic than CPT-11; cited from earlier work.

Where “and” joins values, the source holds several entries; their conditions need not be identical. Identical values can stand only once. Entries after “also recorded” stand apart in the source; their conditions may differ. Counter-ions that a name gives are not always drawn. Like-named read-outs stand apart in the source and are kept apart here. Some results are limits rather than exact numbers.

These results are taken from patent US12318372B2, “Formulations with enhanced SN-38 solubility and oral absorption” (TaiRx Inc., priority 2021, dated 2025).

Take `CCc1c2c(nc3ccc(OC(=O)N4CCC(N5CCCCC5)CC4)cc13)-c1cc3c(c(=O)n1C2)COC(=O)[C@]3(O)CC` [CPT-11, irinotecan]: in data set [1] (50 mg/kg i.p. Q4D x 3 wks), the “Tumor weights on Day 34 Geometric mean” value is given as 24.9 mg and the “Tumor weights on Day 34 TGI %” value is listed as 85%. For the same compound, the aqueous solubility (as a rule, how much of the substance goes into solution per volume) in data set [2] (HCl salt, in water) is recorded as 25 mM. Moreover, in [3], the antigenic potential result is given as “has shown antigenic potential”. The antigenic potential result in data set [4] is “has shown antigenic potential”. Moreover, the irinotecan remained unhydrolyzed in data set [5] (humans, at the end of a 24-hour infusion) is reported as 33-66%. Moreover, the “bioconversion to SN-38” value in data set [5] (in humans) is recorded as around 5%. Further, the dogs showing emesis entry in data set [6] (20 mg/kg i.v.) is listed as “five of six”. In addition, in [6] (dogs, 40 mg/kg), the mortality result is “the two dogs died 3 and 6 minutes later”; the time to emesis is 1 min.

Consider `CCc1c2c(nc3ccc(OC(=O)N4CCC(N5CCCCC5)CC4)cc13)-c1cc3c(c(=O)n1C2)COC(=O)[C@]3(O)CC` [Irinotecan HCL trihydrate, Irinotecan HCL Trihydrate], for which, in [1] (20.8 mg/kg i.v. BIW x 3 wks), the “Tumor weights on Day 34 Geometric mean” value came to 171.0 mg and the “Tumor weights on Day 34 TGI %” value was 78%. Moreover, in [7], the “Tumor weights on Day 32 Geometric mean” value turned out to be 134.0 mg and the “Tumor weights on Day 32 TGI %” value came out at 84%. In [8], the “Tumor weights on Day 34 Geometric mean” value is 428.6 mg and the “Tumor weights on Day 34 TGI %” value worked out at 60%.

With `CCc1c2c(nc3ccc(O)cc13)-c1cc3c(c(=O)n1C2)COC(=O)[C@]3(O)CC` [SN-38, 7-Ethyl-10-hydroxy-camptothecin], the SN-38 solubility was 0.017 mg/g in data set [9] (in Cremophor EL at 30% in water, 20° C.); 0.054 mg/g in [9] (in Labrafil M1944CS, 20° C.); 18.51 mg/g in data set [9] (in NMP/VitE TPGS (50/20 w/w), 20° C.); 7.57 mg/g in data set [9] (in NMP/VitE TPGS/Capmul MCM/Tween 20 (50/20/10/20 w/w)); 9.2 mg/g and 9.25 mg/g in data set [9] (in NMP/VitE TPGS/GELUCIRE (50/20/20), 20° C.); 9.04 mg/g in data set [9] (in NMP/VitE TPGS/Isopropyl myristate/Solutol HS15 (50/20/10/20 w/w)). Besides, the “SN-38 solubility” value is 15.6 mg/g and 15.65 mg/g in data set [9] (in NMP/VitE TPGS/KOLLIDON VA64 (50/20/20), 20° C.); 10.0 mg/g and 10.02 mg/g in [9] (in NMP/VitE TPGS/LUTROL F127 (50/20/20), 25° C.); 2.76 mg/g in data set [9] (in NMP/VitE TPGS/Labrafac Lipophile WL1349/Lauroglycol 90 (50/20/10/20 w/w)); 5.95 mg/g in [9] (in NMP/VitE TPGS/Mygliol 812/Propylene glycol (50/20/10/20 w/w)); 42 mg/g in data set [9] (in NMP, 24 h stirring at 20° C.); 1.15 mg/g in [9] (in Propylene glycol, 20° C.). Further, the SN-38 solubility entry in [9] (in VitE TPGS at 20% in water, 20° C.) is on record as “≈0.01 mg/g”; in [9] (in all other tested media (other than NMP, propylene glycol, Capmul MCM)), “lower than 0.054 mg/g”. Moreover, the “SN-38 content calculated by HPLC” value is recorded as 14.32 mg/g in data set [10] (2% HPC (vs NMP) in NMP/VitE TPGS (50 w/20 w)); 14.03 mg/g in [10] (4% HPMC E4M (vs NMP) in NMP/VitE TPGS (50 w/20 w)); 14.00 mg/g in data set [10] (4% HPMC E10M (vs NMP) in NMP/VitE TPGS (50 w/20 w)); 13.95 mg/g in data set [10] (5% HPC (vs NMP) in NMP/VitE TPGS (50 w/20 w), 24 h stirring at 20° C.); 14.47 mg/g in [10] (No polymer in NMP/VitE TPGS (50 w/20 w), filtered 15 mg/g starting solution). In data set [10] (HPMC E4M, HPMC E10M or HPC added onto 15 mg/g SN-38 solution in NMP/VitE TPGS 50/20), the “SN-38 precipitation on addition of gelling polymers” value is reported as “No SN-38 precipitation is observed; also recorded: without precipitation of SN-38”. The “Concentration at which SN-38 is soluble” value in data set [11] is listed as 10 mg/g. Also, the solubility in water in data set [2] (Zhang et al. 2004) was below 40 µg/mL. In data set [2] (background statement b6), the “solubility (S)” value is below 10 µg/mL. Further, the “cytotoxicity relative to CPT-11” value in data set [12] is on record as 200-2000 times. The antigenic potential entry in [3] is “no antigenic potential”. Also, the emesis or nausea result in [6] (dogs, 11.6 mg/kg i.v.) is reported as “no emesis or nausea was noted”.
